From ChEMBL document CHEMBL5154908, “Design, Synthesis, and Biological Characterization of Inhaled p38α/β MAPK Inhibitors for the Treatment of Lung Inflammatory Diseases” (J Med Chem, 2022) come the findings set out here.

In brackets after ≈: the same amount, converted by molar mass.

In series [1] the test system is Rattus norvegicus. Briefly: Antiinflammatory activity against LPS-induced Sprague-Dawley rat inflammatory model assessed as inhibition of neutrophil cells release in BALF at 0.1 mg/kg, IT preincubated for 2 hrs followed by LPS-stimulation and measured after 4 hrs relative to control. The arrangement: scale not given: the % may be the effect or the level left. It is filed as functional. The settings on record: time 6 hrs.

For series [2], the system named is Rattus norvegicus. Briefly: Antiinflammatory activity against LPS-induced Sprague-Dawley rat inflammatory model assessed as inhibition of neutrophil cells release in BALF at 0.3 mg/kg, IT preincubated for 2 hrs followed by LPS-stimulation and measured after 4 hrs relative to control. Format: functional. Further details: scale not given: the % may be the effect or the level left. The settings on record: time 6 hrs.

The target in series [3] is Mitogen-activated protein kinase 11 (Homo sapiens, UniProt Q15759). The experiment in a line: Inhibition of recombinant human full length His-tagged p38beta expressed in baculovirus expression system preincubated for 2 hrs followed by ATP addition and measured after 1 hr by Alpha screen assay. (Bead proximity is the source of the signal in Alpha formats.)
Series [4] is described as follows: Permeability across apical to basolateral side in human Caco-2 cells at 10 uM measured after 60 mins by LC/MS/MS analysis. It is filed as ADME, cell-based. The settings on record: read-out: permeability. (Caco-2 cells form a polarised layer with tight junctions and transporters.)
Series [5] can be described thus: Cmax in Sprague-Dawley rat lung homogenate at 0.03 mg/kg, IT measured after 0.8 hrs by LC/MS/MS analysis. Format: ADME, organism-based. The arrangement: time 0.8 hrs, dose 0.03 mg/kg, route it.
Series [6] is described as follows: Protein binding in rat lung homogenate at 10 uM incubated for 4 hrs by LC/MS/MS analysis. Format: ADME, tissue-based. The settings on record: read-out: PB (converted).
The subject of series [7] is Rattus norvegicus. Briefly: Antiinflammatory activity against LPS-induced Sprague-Dawley rat inflammatory model assessed as inhibition of neutrophil cells release in BALF at 1 mg/kg, IT measured after 1 hr relative to control. Format: functional.
Series [8] addresses T1, Mitogen-activated protein kinase 13 (Homo sapiens, UniProt O15264).
T1 sequence (O15264 whole entry): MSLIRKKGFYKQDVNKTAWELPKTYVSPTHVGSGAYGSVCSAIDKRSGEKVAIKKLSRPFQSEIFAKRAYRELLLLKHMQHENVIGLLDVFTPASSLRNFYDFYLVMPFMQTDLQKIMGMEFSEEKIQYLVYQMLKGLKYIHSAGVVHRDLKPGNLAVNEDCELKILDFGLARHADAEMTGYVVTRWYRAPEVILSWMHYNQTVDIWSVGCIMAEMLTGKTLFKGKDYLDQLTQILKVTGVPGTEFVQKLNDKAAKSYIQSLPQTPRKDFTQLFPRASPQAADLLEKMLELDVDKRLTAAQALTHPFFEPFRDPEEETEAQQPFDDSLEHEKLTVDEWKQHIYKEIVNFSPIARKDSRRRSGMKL
The experiment in a line: Inhibition of recombinant human full length His-tagged p38delta expressed in baculovirus expression system preincubated for 2 hrs followed by ATP addition and measured after 1 hr by Alpha screen assay.

For series [9], the target named is T2, Mitogen-activated protein kinase 14 (Homo sapiens, UniProt Q16539). Briefly: Displacement of SKF-86002 from human inactivated p38alpha assessed as dissociation half life incubated for 2 hrs by fluorescence based analysis.
Series [10] is described as follows: Protein binding in rat plasma at 10 uM incubated for 4 hrs by LC/MS/MS analysis. It is filed as ADME, cell-free. The settings on record: read-out: PPB (converted).
A short description of series [11]: Solubility of the compound at >=1 mg/ml measured after 30 mins by HPLC analysis. Format: physicochemical.
A short description of series [12]: Terminal half life in Sprague-Dawley rat lung homogenate at 0.03 mg/kg, IT measured after 24 hrs by LC/MS/MS analysis. Format: ADME, organism-based. The settings on record: read-out: beta t1/2.
Series [13] addresses T3, Mitogen-activated protein kinase 12 (Homo sapiens, UniProt P53778).
T3 sequence (P53778 whole entry): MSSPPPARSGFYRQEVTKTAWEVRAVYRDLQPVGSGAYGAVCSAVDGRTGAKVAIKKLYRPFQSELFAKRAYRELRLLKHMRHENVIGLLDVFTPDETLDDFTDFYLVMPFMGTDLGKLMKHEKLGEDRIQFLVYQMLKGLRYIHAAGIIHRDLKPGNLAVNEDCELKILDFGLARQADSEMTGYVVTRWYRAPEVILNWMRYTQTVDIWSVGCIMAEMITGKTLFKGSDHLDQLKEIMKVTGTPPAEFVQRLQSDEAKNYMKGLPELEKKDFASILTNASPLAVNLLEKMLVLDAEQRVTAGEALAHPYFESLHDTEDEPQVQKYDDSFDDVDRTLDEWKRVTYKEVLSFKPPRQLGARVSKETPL
The experiment in a line: Inhibition of recombinant human full length His-tagged p38gamma expressed in baculovirus expression system preincubated for 2 hrs followed by ATP addition and measured after 1 hr by Alpha screen assay.

The target in series [14] is T2, Mitogen-activated protein kinase 14. The experiment in a line: Inhibition of human recombinant full length GST-tagged p38alpha expressed in Escherichia coli preincubated for 2 hrs followed by ATP addition and measured after 1 hr by Alpha screen assay.
The nature of series [15]: Drug uptake in Sprague-Dawley rat lung homogenate at 0.03 mg/kg, IT measured after 24 hrs by LC/MS/MS analysis. Format: ADME, organism-based. The settings on record: in vivo, other.
Series [16] is described as follows: Protein binding in human plasma at 10 uM incubated for 4 hrs by LC/MS/MS analysis. It is filed as ADME, cell-free. The settings on record: read-out: PPB.
Series [17] is described as follows: Drug concentration in Sprague-Dawley rat lung homogenate at 1 mg/kg, IT measured after 24 hrs by LC/MS/MS analysis. It is filed as ADME, organism-based. The settings on record: read-out: Ct.
Series [18] in a line: Drug uptake in Sprague-Dawley rat lung homogenate at 0.03 mg/kg, IT measured after 7 hrs by LC/MS/MS analysis. Format: ADME, organism-based. The settings on record: in vivo, other.
In series [19] the test system is Rattus norvegicus. The experiment in a line: Antiinflammatory activity against LPS-induced Sprague-Dawley rat inflammatory model assessed as inhibition of neutrophil cells release in BALF at 1 mg/kg, IT measured after 24 hrs relative to control. Format: functional.
Series [20] is described as follows: Selectivity index, ratio of drug concentration in Sprague-Dawley rat lung homogenate to IC50 for human p38alpha. Format: tissue-based. The settings on record: tissue homogenate.
Series [21] can be described thus: Inhibition of LPS-stimulated TNFalpha release in human PBMC cells preincubated for 1 hr followed by LPS stimulation and measured after 18 hrs. Format: functional, cell-based.
Series [22] can be described thus: Metabolic stability in rat liver microsomes assessed as half life at 1 uM preincubated for 10 mins followed by NADPH addition and measured after 30 mins by LC/MS/MS analysis. The settings on record: time 40 min. It is filed as ADME, Microsome. On the technique in general: Liver microsomes are vesicles of endoplasmic reticulum, rich in cytochrome P450 enzymes.
A short description of series [23]: Cmax in Sprague-Dawley rat plasma at 0.03 mg/kg, IT measured after 0.8 hrs by LC/MS/MS analysis. It is filed as ADME, organism-based. The arrangement: dose 0.03 mg/kg, time 0.8 hrs, route it.
The nature of series [24]: Efflux ratio of permeability in human Caco-2 cells at 10 uM measured after 60 mins by LC-MS/MS analysis. Format: ADME, cell-based.
The nature of series [25]: Cmax in Sprague-Dawley rat plasma at 0.3 mg/kg, IT measured after 0.8 hrs by LC/MS/MS analysis. It is filed as ADME, organism-based. Further details: time 0.8 hrs, dose 0.3 mg/kg, route it.
In series [26] the test system is Rattus norvegicus. Briefly: Antiinflammatory activity against LPS-induced Sprague-Dawley rat inflammatory model assessed as inhibition of neutrophil cells release in BALF at 0.3 mg/kg, IT incubated for 9 hrs followed by LPS-stimulation relative to control. It is filed as functional.
A short description of series [27]: Cmax in Sprague-Dawley rat lung homogenate at 0.3 mg/kg, IT measured after 0.8 hrs by LC/MS/MS analysis. The arrangement: time 0.8 hrs, dose 0.3 mg/kg, route it. It is filed as ADME, organism-based.
The nature of series [28]: Drug concentration in Sprague-Dawley rat lung homogenate at 0.3 mg/kg, IT measured after 24 hrs by LC/MS/MS analysis. Format: ADME, organism-based. The settings on record: read-out: Ct.

T2 sequence (Q16539 whole entry): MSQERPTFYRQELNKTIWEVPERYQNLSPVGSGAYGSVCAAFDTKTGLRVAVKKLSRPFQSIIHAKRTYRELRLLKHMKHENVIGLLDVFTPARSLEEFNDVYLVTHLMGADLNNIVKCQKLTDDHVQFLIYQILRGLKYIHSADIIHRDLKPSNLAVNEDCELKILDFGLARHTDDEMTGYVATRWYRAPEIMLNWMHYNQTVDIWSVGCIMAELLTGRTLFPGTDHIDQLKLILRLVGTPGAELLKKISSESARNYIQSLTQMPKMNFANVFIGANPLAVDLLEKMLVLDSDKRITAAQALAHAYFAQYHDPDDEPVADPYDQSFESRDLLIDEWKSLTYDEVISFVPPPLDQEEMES
Mitogen-activated protein kinase 11, sequence (Q15759 whole entry): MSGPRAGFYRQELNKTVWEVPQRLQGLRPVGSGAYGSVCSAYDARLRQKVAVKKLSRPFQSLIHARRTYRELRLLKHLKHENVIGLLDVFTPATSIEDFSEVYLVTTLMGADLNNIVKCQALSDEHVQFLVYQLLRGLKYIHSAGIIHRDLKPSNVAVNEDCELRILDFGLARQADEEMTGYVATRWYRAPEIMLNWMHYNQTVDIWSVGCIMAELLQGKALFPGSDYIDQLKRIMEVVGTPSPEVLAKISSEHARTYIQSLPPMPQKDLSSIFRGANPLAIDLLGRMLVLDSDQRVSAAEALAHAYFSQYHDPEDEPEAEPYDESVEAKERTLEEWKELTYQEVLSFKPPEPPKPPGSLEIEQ

Consider `C[C@H]1CCCCN1c1nnc2ccc(O[C@@H]3CC[C@H](NC(=O)Nc4cc(C(C)(C)C)nn4-c4cnn(CCN(C)C)c4)c4ccccc43)cn12.Cl`, for which the Activity in the series with Rattus norvegicus [1] came to 55%; in the series on Rattus norvegicus [2] it was 49%.

The term IC50 denotes the midpoint of a concentration-inhibition curve. What is called Cmax is the maximum level reached in the sampled fluid or tissue. For orientation: inhibition in vivo means the drop in the measured response relative to a control, in per cent. Usually solubility stands for the concentration that dissolves in the medium under given conditions. Take `Cc1ccc(-n2nc(C(C)(C)C)cc2NC(=O)N[C@H]2CC[C@@H](Oc3ccc4nnc(C(C)C)n4c3)c3ccccc32)cc1`: the IC50 is 0.2 nM in series [3]; over 5000 nM in [8]; 164 nM in series [13]; 0.2 nM in series [14]; 0.1 nM in [21]. Further, the Papp A→B at 1 h, 10 µM in series [4] was found to be 2.8 ×10⁻⁶ cm/s. For the same molecule, the Cmax in [5] was determined as 1080 nM; in series [23] it was 90 nM. Besides, the fraction unbound at 4 h, 10 µM is 0.004 in series [6], under 0.001 in series [10] and 0.001 in [16]. Further, the inhibition in vivo at 1 mg/kg is 50% in the series with Rattus norvegicus [7] and -3% in the series with Rattus norvegicus [19]. In addition, the T1/2 in series [9] was over 16 h. In [11], this molecule yielded a solubility at 0.5 h of 10 µg/mL (≈ 17.3 µM). The half-life in [12] was over 24 h. In addition, the Drug uptake was 9.6% in [15] and 8.4% in [18]. The concentration at 24 h in series [17] was found to be 29800 nM. Besides, the Ratio in series [20] came out at 149. Also, the half-life at 1 µM in [22] was under 0.167 h.

As usually defined, the efflux ratio is the permeability from basolateral to apical divided by that in the opposite direction, in the common usage. Take `C[C@@H]1CCC[C@H](C)N1c1nnc2ccc(O[C@@H]3CC[C@H](NC(=O)Nc4cc(C(C)(C)C)nn4-c4cnn(CCN(C)C)c4)c4ccccc43)cn12`: the IC50 was 0.1 nM in [3]; over 10000 nM in [8]; 805 nM in series [13]; 0.05 nM in [14]; 0.5 nM in series [21]. For the same molecule, the Papp A→B at 1 h, 10 µM in [4] is 1.9 ×10⁻⁶ cm/s. Further, the fraction unbound at 4 h, 10 µM in series [6] is 0.002; in series [10] it was 0.004. For the same molecule, the efflux ratio at 1 h, 10 µM in series [24] is over 2.5. Moreover, the T1/2 in series [9] is over 16 h. Moreover, the solubility at 0.5 h in series [11] stood at 620 µg/mL (≈ 893 µM). Moreover, the Drug uptake is given as 5.4% in series [15] and 10% in [18]. Further, the Ratio in series [20] was determined as 183. Further, the results for the Cmax in [25] and in series [27] were 30 nM and 6360 nM, respectively. Also, in the series on Rattus norvegicus [26], the inhibition in vivo at 0.3 mg/kg is 43%. In series [28], the concentration at 24 h was determined as 4580 nM.
